Measured values taken from PMC7106896, “Synthesis and biological evaluation of 2-(4-methylsulfonyl phenyl) indole derivatives: multi-target compounds with dual antimicrobial and anti-inflammatory activities” (BMC Chemistry, 2020).
Converted amounts (≈) assume the structure as drawn.

How the values were obtained:
C. albicans = test: Minimal inhibitory concentration measurement; assay type: cell-based; settings: Candida albicans; read-out: MIC Ca (C. albicans)
[1] = system: C. neoformans var. grubii; test: Minimal inhibitory concentration measurement; assay type: cell-based; settings: Cryptococcus neoformans; read-out: MIC Cn (C. neoformans var. grubii)
[2] = system: Acinetobacter baumannii (ATCC 19606); test: Antimicrobial screening (CO-ADD), growth inhibition at single concentration; assay type: cell-based; settings: ATCC19606, at 32 µg/mL concentration, read-out: growth inhibition % Ab (A. baumannii)
Experimental: (§1) The antimicrobial study was performed by CO-ADD (The Community for Antimicrobial Drug Discovery), funded by the Wellcome Trust (UK) and The University of Queensland (Australia). Evaluation of all synthesized compounds for their antimicrobial activities was done against five pathogenic bacteria, methicillin-resistant Staphylococcus aureus (ATCC 43300) as Gram-positive bacteria, Escherichia coli (ATCC 25922), Klebsiella pneumonia (ATCC 700603), Acinetobacter baumannii (ATCC 19606) and Pseudomonas aeruginosa (ATCC 27853) as Gram-negative bacteria and antifungal activity against two pathogenic fungal strains Candida albicans (ATCC 90028) and Cryptococcus neoformans var. grubii (H99; ATCC 208821) (Table 1).

[3] = system: Escherichia coli (ATCC 25922); test: as above; assay type: cell-based; settings: ATCC25922, at 32 µg/mL concentration, read-out: growth inhibition % Ec (E. coli)
Experimental: as §1

[4] = system: Klebsiella pneumonia (ATCC 700603); test: as above; assay type: cell-based; settings: Klebsiella pneumoniae, ATCC700603; at 32 µg/mL concentration; read-out: growth inhibition % Kp (K. pneumoniae)
Experimental: as §1

[5] = system: Pseudomonas aeruginosa (ATCC 27853); test: as above; assay type: cell-based; settings: ATCC27853, at 32 µg/mL concentration, read-out: growth inhibition % Pa (P. aeruginosa)
Experimental: as §1

[6] = system: methicillin-resistant Staphylococcus aureus (ATCC 43300); test: as above; assay type: cell-based; settings: ATCC 43300 / MRSA, at 32 µg/mL concentration, read-out: growth inhibition % Sa (MRSA)
Experimental: as §1

[7] = system: Candida albicans (ATCC 90028); test: Antifungal screening (CO-ADD), growth inhibition at single concentration; assay type: cell-based; settings: ATCC90028, at 32 µg/mL concentration, read-out: growth inhibition % Ca (C. albicans)
Experimental: as §1

MRSA = test: Minimal inhibitory concentration measurement; assay type: cell-based; settings: Staphylococcus aureus, read-out: MIC Sa (MRSA)
E. coli = test: Minimal inhibitory concentration measurement; assay type: cell-based; settings: Escherichia coli; read-out: MIC Ec (E. coli)
P. aeruginosa = test: Minimal inhibitory concentration measurement; assay type: cell-based; settings: Pseudomonas aeruginosa; read-out: MIC Pa (P. aeruginosa)
A. baumannii = test: Minimal inhibitory concentration measurement; assay type: cell-based; settings: Acinetobacter baumannii; read-out: MIC Ab (A. baumannii)
[8] = Cytotoxicity against human embryonic kidney cell line; assay type: cell-based; settings: read-out: CC50 (concentration at 50% cytotoxicity)
Experimental: (§2) The safety margin for the active compounds to human cells was determined through cytotoxicity against human embryonic kidney cell line and hemolysis of human red blood cells. The tested compounds 7a, 7g, and 7i were tolerated and non-toxic to human cells as the cytotoxic and hemolytic dose was higher than the therapeutic dose (Table 2).

human red blood cells = test: Hemolysis of human red blood cells; assay type: cell-based
Experimental: as §2

Ovine COX-1 = target: T1, Ovine COX-1 (Ovis aries, UniProt P05979); test: In vitro COX inhibition colorimetric assay; assay type: biochemical
T1 construct: purchased Cayman Chemical, Ann Arbor, MI, USA 760111
T1 sequence (P05979 25-600): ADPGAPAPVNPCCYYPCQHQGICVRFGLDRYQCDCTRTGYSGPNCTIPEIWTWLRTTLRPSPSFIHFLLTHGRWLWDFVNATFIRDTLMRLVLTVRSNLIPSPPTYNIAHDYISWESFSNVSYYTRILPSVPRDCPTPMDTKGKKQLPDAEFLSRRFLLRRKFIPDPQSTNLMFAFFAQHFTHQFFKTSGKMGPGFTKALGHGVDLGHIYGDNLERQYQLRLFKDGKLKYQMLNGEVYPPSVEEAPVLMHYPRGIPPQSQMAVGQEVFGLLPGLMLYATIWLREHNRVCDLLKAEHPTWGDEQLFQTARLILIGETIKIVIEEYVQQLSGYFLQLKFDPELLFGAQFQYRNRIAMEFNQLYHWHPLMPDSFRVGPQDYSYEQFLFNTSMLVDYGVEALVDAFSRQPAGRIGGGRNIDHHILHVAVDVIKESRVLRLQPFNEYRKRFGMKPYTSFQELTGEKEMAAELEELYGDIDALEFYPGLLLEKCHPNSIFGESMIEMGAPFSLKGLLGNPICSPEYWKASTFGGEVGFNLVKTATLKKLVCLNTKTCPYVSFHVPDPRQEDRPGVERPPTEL

human recombinant COX-2 = test: In vitro COX inhibition colorimetric assay; assay type: biochemical; settings: COX-1 IC50/COX-2 IC50
[9] = system: carrageenan-induced rat paw edema; test: Carrageenan-induced rat paw edema assay; assay type: in vivo; settings: for Edema thickness (mm) ± SEM: n = 4
Experimental: Pretreatment of rats with compounds 7a–k, 8a–c, and 9a–c before injection with carrageenan in rat paw which induces inflammation and then the percentage of paw edema reduction was measured after certain hours according to previously reported procedures.

[10] = system: MRSA bacteria and E. coli, K. pneumoniae, P. aeruginosa, and A. baumannii; test: Antibacterial screening, result pooled over the five bacteria; assay type: cell-based; settings: read-out: growth inhibition, range over MRSA, E. coli, K. pneumoniae, P. aeruginosa and A. baumannii
Experimental: as §1

Row | Structure (SMILES) | MIC (C. albicans) [µg/mL] | MIC [1] [µg/mL] | MIC (MRSA) [µg/mL] | MIC (E. coli) [µg/mL] | MIC (P. aeruginosa) [µg/mL] | MIC (A. baumannii) [µg/mL] | IC50 (Ovine COX-1) [µM] | inhibition at 32 µg/mL [2] [%] | inhibition at 32 µg/mL [3] [%] | inhibition at 32 µg/mL [4] [%] | inhibition at 32 µg/mL [5] [%] | inhibition at 32 µg/mL [6] [%] | inhibition at 32 µg/mL [7] [%] | CC50 [8] [µg/mL] | HC10 (concentration at 10% hemolysis) (human red blood cells) [µg/mL] | Selectivity index (SI) (human recombinant COX-2) | Edema inhibition % ([9]; 1 h) [%] | Edema thickness (mm) ± SEM ([9]; 1 h) [mm] | Edema inhibition % ([9]; 3 h) [%] | Edema thickness (mm) ± SEM ([9]; 3 h) [mm] | further results
1 | C[C@@H]1[C@H](O)[C@@H](C)/C=C/C=C/C=C/C=C/C=C/C=C/C=C/[C@H](O[C@@H]2O[C@H](C)[C@@H](O)[C@H](N)[C@@H]2O)C[C@@H]2O[C@](O)(C[C@@H](O)C[C@@H](O)[C@H](O)CC[C@@H](O)C[C@@H](O)CC(=O)O[C@H]1C)C[C@H](O)[C@H]2C(=O)O [Amphotericin B, amphotericin B, reference compound] | 1.56 (≈ 1.69 µM) | 1.56 (≈ 1.69 µM) |  |  |  |  |  |  |  |  |  |  |  |  |  |  |  |  |  |  | 
2 | CO/N=C(\C(=O)N[C@@H]1C(=O)N2C(C(=O)O)=C(CSc3nc(=O)c(=O)[nH]n3C)CS[C@H]12)c1csc(N)n1 [Ceftriaxone, ceftriaxone, reference compound] |  |  | 32 (≈ 57.7 µM) | 0.125 (≈ 0.225 µM) | 32 (≈ 57.7 µM) | 32 (≈ 57.7 µM) |  |  |  |  |  |  |  |  |  |  |  |  |  |  | 

Further lines, with some results ahead:

Row | MIC (C. albicans) [µg/mL] | MIC [1] [µg/mL] | MIC (MRSA) [µg/mL] | MIC (E. coli) [µg/mL] | MIC (P. aeruginosa) [µg/mL] | MIC (A. baumannii) [µg/mL] | IC50 (Ovine COX-1) [µM] | Structure (SMILES) | inhibition at 32 µg/mL [2] [%] | inhibition at 32 µg/mL [3] [%] | inhibition at 32 µg/mL [4] [%] | inhibition at 32 µg/mL [5] [%] | inhibition at 32 µg/mL [6] [%] | inhibition at 32 µg/mL [7] [%] | CC50 [8] [µg/mL] | HC10 (concentration at 10% hemolysis) (human red blood cells) [µg/mL] | Selectivity index (SI) (human recombinant COX-2) | Edema inhibition % ([9]; 1 h) [%] | Edema thickness (mm) ± SEM ([9]; 1 h) [mm] | Edema inhibition % ([9]; 3 h) [%] | Edema thickness (mm) ± SEM ([9]; 3 h) [mm] | further results
3 | > 32 | > 32 | 2 (≈ 4.11 µM) | ≤ 0.25 | 2 (≈ 4.11 µM) | 4 (≈ 8.22 µM) | 13.2 | CS(=O)(=O)c1ccc(-c2[nH]c3ccc(F)cc3c2/C=N/Nc2ccc(S(N)(=O)=O)cc2)cc1 [Compound 7i, 4-(2-((5-Fluoro-2-(4-(methylsulfonyl)phenyl)-1H-indol-3yl)methylene)hydrazinyl) benzene sulfonamide] | 94.3 | 96.5 | 94.4 | 96.9 | 95.2 | 15.3 | 2.99 (≈ 6.14 µM) | > 32 | 132 | 73.1 | 0.705 ± 0.047 | 94.3 | 0.127 ± 0.009 | Edema inhibition % ([9]; 6 h): 90.1%; Edema thickness (mm) ± SEM ([9]; 6 h): 0.187 ± 0.015 mm; inhibition at 32 µg/mL [10]: 85.8 to 97.8%; melting point: 212 to 214 °C; MIC Kp (K. pneumoniae) (K. pneumoniae): 2 µg/mL (≈ 4.11 µM)
4 | > 32 | > 32 | 8 (≈ 19.6 µM) | ≤ 0.25 | 4 (≈ 9.82 µM) | 16 (≈ 39.3 µM) | 10.3 | CS(=O)(=O)c1ccc(-c2[nH]c3ccccc3c2C=NNc2ccc(F)cc2)cc1 [Compound 7a, 3-((2-(4-Fluorophenyl)hydrazono)methyl)-2-(4-(methylsulfonyl)phenyl)-1H-indole] | 96.7 | 96.5 | 97.6 | 97.8 | 95.8 | 6.28 | > 32 | > 32 | 93.81 | 74.1 | 0.679 ± 0.03 | 88.7 | 0.250 ± 0.021 | Edema inhibition % ([9]; 6 h): 92%; Edema thickness (mm) ± SEM ([9]; 6 h): 0.151 ± 0.007 mm; inhibition at 32 µg/mL [10]: 85.8 to 97.8%; melting point: 204 to 206 °C; MIC Kp (K. pneumoniae) (K. pneumoniae): 8 µg/mL (≈ 19.6 µM)
5 | > 32 | > 32 | 1 (≈ 2.4 µM) | ≤ 0.25 | 1 (≈ 2.4 µM) | 4 (≈ 9.58 µM) | 7.9 | Cc1ccc(NN=Cc2c(-c3ccc(S(C)(=O)=O)cc3)[nH]c3ccc(C)cc23)cc1 [Compound 7g, 5-Methyl-2-(4-(methylsulfonyl)phenyl)-3-((2-(p-tolyl)hydrazono)methyl)-1H-indole] | 85.8 | 86.4 | 87.5 | 94.6 | 96.2 | 4.88 | 4.2 (≈ 10.1 µM) | > 32 | 39.50 | 58.5 | 1.088 ± 0.090 | 72.3 | 0.618 ± 0.010 | Edema inhibition % ([9]; 6 h): 67.4%; Edema thickness (mm) ± SEM ([9]; 6 h): 0.618 ± 0.045 mm; inhibition at 32 µg/mL [10]: 85.8 to 97.8%; melting point: 166 to 168 °C; MIC Kp (K. pneumoniae) (K. pneumoniae): 1 µg/mL (≈ 2.4 µM)
